What all share (format): cell-based
The target in one data set is hNav1.5 (INa) (Homo sapiens, UniProt Q14524). Put plainly: whole-cell patch clamp. Conditions: AZM alone, external pH 7.4.
The target in data set [1] is T1, hERG (IKr) (Homo sapiens, UniProt Q12809). Description: whole-cell patch clamp.
For the next data set, the target named is KCNQ1/E1 (IKs) (Homo sapiens, UniProt P51787). Description: perforated whole-cell patch clamp. The following applies: AZM alone, external pH 7.4.
The target in the next data set is Cav1.2/β2/α2/δ1 (ICa,L) (Homo sapiens, UniProt Q13936). Description: perforated whole-cell patch clamp. Conditions: AZM alone, external pH 7.4.
Data set [2] has as its target T1, hERG (IKr). Put plainly: whole-cell patch clamp, tail current inhibition.
The target in a further data set is T2, Kir2.1 (IK1) (Homo sapiens, UniProt P63252).
T2 sequence (P63252 1-427): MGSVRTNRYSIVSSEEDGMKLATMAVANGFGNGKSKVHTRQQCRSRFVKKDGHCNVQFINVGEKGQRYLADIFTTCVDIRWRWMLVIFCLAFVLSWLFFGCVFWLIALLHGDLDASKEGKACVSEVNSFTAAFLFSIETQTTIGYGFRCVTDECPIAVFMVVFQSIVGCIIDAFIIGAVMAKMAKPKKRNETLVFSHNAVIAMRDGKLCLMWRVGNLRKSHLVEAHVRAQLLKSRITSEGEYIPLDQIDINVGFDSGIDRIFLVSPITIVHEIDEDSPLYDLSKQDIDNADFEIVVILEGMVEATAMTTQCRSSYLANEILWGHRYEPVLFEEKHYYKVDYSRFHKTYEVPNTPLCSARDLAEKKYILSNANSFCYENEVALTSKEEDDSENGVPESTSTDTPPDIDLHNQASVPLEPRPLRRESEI
Description: whole-cell patch clamp, pulse current inhibition.

Some results are limits rather than exact numbers.

T1 sequence (Q12809 whole entry): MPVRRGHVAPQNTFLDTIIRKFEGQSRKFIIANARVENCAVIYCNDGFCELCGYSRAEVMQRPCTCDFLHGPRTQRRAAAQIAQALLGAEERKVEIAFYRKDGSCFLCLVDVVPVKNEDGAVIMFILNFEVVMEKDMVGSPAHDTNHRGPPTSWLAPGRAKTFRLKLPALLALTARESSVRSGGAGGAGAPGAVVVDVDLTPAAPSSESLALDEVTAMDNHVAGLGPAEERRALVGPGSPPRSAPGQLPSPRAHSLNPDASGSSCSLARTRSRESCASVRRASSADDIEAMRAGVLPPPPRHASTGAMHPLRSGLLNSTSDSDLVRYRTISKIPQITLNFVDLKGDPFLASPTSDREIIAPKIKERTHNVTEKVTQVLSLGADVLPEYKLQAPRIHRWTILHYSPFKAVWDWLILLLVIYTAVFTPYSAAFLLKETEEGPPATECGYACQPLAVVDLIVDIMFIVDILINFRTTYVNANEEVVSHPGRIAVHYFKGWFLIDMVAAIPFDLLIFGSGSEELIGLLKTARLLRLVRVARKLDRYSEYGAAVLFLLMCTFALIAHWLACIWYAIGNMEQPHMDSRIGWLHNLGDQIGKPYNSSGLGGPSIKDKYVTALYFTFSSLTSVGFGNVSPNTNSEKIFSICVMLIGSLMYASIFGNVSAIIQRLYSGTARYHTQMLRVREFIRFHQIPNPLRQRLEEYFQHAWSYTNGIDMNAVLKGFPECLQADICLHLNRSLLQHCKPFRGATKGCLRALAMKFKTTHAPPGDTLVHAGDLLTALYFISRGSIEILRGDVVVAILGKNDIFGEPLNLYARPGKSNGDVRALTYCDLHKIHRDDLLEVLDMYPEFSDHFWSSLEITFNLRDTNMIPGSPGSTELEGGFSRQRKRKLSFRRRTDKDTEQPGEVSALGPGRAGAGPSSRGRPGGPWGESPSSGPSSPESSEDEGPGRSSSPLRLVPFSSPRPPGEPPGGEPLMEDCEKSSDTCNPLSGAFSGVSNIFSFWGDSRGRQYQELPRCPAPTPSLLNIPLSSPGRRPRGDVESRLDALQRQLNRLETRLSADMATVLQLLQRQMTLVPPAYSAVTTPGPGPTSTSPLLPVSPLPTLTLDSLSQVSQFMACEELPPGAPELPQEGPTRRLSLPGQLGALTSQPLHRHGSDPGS
Cav1.2/β2/α2/δ1 (ICa,L), sequence (P54289 957-1103): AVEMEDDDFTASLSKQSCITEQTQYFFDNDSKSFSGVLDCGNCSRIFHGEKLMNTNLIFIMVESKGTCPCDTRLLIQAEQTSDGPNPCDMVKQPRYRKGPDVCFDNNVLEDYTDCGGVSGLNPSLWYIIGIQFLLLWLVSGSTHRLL
Cav1.2/β2/α2/δ1 (ICa,L), sequence (Q08289 whole entry, further chain): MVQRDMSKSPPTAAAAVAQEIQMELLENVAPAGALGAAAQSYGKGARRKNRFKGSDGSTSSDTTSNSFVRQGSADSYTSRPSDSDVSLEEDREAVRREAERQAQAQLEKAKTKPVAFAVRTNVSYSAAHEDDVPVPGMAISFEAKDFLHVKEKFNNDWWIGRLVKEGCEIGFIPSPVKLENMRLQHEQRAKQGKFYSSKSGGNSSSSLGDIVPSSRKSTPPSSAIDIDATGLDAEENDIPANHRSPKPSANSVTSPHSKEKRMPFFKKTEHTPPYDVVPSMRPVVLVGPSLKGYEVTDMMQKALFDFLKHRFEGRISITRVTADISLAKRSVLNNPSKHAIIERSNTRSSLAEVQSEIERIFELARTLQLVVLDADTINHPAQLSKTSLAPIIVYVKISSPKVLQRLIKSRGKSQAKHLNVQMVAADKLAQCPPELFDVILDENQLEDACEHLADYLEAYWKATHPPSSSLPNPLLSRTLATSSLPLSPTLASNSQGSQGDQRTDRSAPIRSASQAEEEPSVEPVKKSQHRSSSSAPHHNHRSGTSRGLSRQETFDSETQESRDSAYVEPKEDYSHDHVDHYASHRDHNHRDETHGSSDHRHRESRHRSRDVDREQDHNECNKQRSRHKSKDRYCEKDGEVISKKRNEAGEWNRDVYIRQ
Cav1.2/β2/α2/δ1 (ICa,L), sequence (Q13936 whole entry): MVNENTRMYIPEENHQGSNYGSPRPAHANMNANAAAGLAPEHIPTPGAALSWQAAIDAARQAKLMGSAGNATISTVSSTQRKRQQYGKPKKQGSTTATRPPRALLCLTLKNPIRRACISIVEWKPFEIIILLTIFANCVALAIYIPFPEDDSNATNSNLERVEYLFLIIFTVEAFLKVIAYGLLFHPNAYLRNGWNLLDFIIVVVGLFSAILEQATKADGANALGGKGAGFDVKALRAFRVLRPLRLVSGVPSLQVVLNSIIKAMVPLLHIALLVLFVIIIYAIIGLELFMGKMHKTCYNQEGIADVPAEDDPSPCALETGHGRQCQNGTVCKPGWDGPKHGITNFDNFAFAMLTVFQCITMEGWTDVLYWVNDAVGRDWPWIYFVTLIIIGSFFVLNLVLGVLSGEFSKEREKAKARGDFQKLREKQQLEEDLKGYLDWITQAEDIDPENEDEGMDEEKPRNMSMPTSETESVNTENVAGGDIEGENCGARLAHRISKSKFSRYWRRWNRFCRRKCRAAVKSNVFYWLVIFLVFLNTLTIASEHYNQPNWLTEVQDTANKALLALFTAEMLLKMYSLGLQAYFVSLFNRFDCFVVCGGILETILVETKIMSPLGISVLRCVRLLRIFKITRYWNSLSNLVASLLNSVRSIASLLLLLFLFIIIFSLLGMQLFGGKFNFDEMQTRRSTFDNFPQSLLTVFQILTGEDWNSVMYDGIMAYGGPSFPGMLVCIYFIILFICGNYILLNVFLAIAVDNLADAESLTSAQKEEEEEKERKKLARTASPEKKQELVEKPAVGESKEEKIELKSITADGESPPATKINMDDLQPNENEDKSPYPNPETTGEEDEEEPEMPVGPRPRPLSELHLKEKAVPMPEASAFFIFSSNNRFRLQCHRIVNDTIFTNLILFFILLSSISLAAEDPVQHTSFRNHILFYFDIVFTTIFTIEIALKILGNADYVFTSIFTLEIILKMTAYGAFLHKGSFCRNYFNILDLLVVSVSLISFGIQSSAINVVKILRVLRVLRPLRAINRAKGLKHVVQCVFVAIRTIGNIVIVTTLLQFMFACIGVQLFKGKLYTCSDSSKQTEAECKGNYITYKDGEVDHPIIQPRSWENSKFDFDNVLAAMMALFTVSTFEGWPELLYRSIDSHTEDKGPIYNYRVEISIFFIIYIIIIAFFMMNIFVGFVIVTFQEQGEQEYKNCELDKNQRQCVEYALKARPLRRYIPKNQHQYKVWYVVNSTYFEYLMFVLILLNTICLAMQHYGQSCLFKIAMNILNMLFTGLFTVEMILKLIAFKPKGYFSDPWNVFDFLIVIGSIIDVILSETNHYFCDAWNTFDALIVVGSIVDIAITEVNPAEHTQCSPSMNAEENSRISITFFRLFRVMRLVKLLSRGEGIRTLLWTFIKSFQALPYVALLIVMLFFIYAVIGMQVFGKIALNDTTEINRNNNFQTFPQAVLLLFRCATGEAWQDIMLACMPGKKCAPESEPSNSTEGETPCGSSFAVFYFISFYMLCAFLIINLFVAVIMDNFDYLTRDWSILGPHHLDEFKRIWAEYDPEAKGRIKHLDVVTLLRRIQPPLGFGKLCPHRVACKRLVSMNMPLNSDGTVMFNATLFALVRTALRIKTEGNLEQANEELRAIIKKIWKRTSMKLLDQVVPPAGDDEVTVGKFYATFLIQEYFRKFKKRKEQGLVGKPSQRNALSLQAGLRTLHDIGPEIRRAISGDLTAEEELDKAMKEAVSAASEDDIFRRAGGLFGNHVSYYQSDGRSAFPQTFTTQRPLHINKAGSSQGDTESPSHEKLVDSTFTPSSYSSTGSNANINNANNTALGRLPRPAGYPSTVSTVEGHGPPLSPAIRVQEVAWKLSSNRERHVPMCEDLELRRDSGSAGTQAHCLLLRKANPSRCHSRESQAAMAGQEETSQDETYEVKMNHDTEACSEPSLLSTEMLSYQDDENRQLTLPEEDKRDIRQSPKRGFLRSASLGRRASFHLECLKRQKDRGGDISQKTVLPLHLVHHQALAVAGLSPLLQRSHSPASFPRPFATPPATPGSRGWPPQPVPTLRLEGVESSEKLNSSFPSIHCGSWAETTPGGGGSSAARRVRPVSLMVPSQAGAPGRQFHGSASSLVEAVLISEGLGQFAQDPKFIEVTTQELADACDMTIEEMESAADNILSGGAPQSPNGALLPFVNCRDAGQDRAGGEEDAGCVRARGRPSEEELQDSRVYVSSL
Cav1.2/β2/α2/δ1 (ICa,L), sequence (P54289 25-956): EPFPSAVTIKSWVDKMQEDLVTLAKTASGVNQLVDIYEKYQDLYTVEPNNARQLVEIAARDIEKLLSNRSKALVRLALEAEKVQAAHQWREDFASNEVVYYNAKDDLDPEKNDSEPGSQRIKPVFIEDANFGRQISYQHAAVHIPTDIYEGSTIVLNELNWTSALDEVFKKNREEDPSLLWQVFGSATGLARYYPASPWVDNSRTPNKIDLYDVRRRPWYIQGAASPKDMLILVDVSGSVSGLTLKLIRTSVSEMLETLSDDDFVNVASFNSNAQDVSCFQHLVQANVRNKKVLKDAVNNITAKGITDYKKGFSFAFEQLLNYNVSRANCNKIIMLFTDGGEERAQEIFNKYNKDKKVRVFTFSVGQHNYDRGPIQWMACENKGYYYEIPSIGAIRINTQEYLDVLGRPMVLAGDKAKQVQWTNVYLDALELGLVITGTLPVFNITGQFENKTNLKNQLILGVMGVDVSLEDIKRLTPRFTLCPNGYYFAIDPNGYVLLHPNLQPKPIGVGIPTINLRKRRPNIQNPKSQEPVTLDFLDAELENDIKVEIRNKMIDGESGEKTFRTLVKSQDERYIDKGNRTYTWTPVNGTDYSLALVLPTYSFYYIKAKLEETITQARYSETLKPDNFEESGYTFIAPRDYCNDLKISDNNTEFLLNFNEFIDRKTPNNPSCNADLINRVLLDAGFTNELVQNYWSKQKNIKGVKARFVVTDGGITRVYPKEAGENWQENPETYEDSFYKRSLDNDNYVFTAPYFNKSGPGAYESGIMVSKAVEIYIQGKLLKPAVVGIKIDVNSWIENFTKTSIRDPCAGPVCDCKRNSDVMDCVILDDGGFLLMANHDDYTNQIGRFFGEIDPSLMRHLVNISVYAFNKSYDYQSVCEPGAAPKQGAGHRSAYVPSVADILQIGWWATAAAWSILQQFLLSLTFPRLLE

For the compound `CC[C@H]1OC(=O)[C@H](C)[C@@H](O[C@H]2C[C@@](C)(OC)[C@@H](O)[C@H](C)O2)[C@H](C)[C@@H](O[C@@H]2O[C@H](C)C[C@H](N(C)C)[C@H]2O)[C@](C)(O)C[C@@H](C)CN(C)[C@H](C)[C@@H](O)[C@]1(C)O` [azithromycin], the “% reduction at 100 μM” value on hNav1.5 (INa), at hERG (IKr) [1], on KCNQ1/E1 (IKs) and at Cav1.2/β2/α2/δ1 (ICa,L) was below 35% throughout.

Turning to `CCN(CCO)CCCC(C)Nc1ccnc2cc(Cl)ccc12` (stereo not drawn) [hydroxychloroquine], the IC50 turned out to be 10 ± 0.6 µM against hERG (IKr) [2] and 34 ± 5 µM on Kir2.1 (IK1).
